Results on seven compounds are retold here after ChEMBL document CHEMBL1201862, “PubChem BioAssay data set” (2004).

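Exposure lasted 48 hours, with cells grown in 96-well plates and compounds tested at five concentrations. GI50 is the concentration that inhibits growth by half.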 Active and inactive are the calls of the source. Rule as the data show it: active = GI50 up to about 1.1 µM and inactive = higher. Some results are limits rather than exact numbers.

Among the test systems are HOP-62; SF-268; MOLT-4; BT-549; M14; HCC 2998; TK-10; SK-MEL-2; COLO 205; A498; SF-539; NCI-H23; 786-0; NCI/ADR-RES; PC-3; UACC-62; Malme-3M; HCT-15; UACC-257; MDA-N.
Experiment in all cases: inhibition of tumour cell growth, NCI panel, 48 h

Turning to `O=[N+]([O-])C(=C(N1CCOCC1)N1CCOCC1)/C(Cl)=C(\Cl)[N+](=O)[O-]`, the GI50 in the test with HOP-62 was 15.7 µM (inactive); in the test with SF-268, 10.6 µM (inactive); in the test with MOLT-4, 17.2 µM (inactive); in the test on BT-549 it was 4.59 µM (inactive); with M14 it was 6.35 µM (inactive); in the test on HCC 2998, 20.4 µM (inactive). Besides, the GI50 in the test with TK-10 is 1.99 µM (inactive); in the test with SK-MEL-2 it was 15.8 µM (inactive); with COLO 205, 3.18 µM (inactive); in the test with A498, 20.2 µM (inactive); in the test with SF-539, 11.6 µM (inactive); with NCI-H23, 3.33 µM (inactive). Further, the GI50 with 786-0 is 3.69 µM (inactive); in the test on NCI/ADR-RES, 21.4 µM (inactive); in the test on PC-3 it was 16.4 µM (inactive); in the test on UACC-62 it was 16.6 µM (inactive); in the test on Malme-3M, 1.68 µM (inactive); in the test on HCT-15, 2.7 µM. For the same compound, the GI50 with UACC-257 is 5.55 µM (inactive); in the test on MDA-N, 9.75 µM (inactive).

`Cc1cc(S(=O)(=O)Nc2nnc3c4ccccc4cnn23)c(S)cc1Cl`: the GI50 in the test on HOP-62 is 52.8 µM (inactive); in the test with SF-268 it was 39.9 µM (inactive); in the test with MOLT-4 it was > 100 µM (inactive); in the test on BT-549, > 54.5 µM (inactive); with M14, > 100 µM (inactive); in the test on HCC 2998, 42.2 µM (inactive). The GI50 is > 100 µM (inactive) with TK-10; 31.6 µM (inactive) with SK-MEL-2; > 100 µM (inactive) with COLO 205; > 85.1 µM (inactive) with A498; > 56.9 µM (inactive) with SF-539; 63 µM (inactive) with NCI-H23. In addition, the GI50 in the test with 786-0 is > 74.3 µM (inactive); in the test with NCI/ADR-RES, > 64.7 µM (inactive); with PC-3, > 100 µM (inactive); in the test with UACC-62, 46.9 µM (inactive); in the test with Malme-3M it was > 100 µM (inactive); with HCT-15, above 58.6 µM. Besides, the GI50 in the test on UACC-257 and with MDA-N was > 100 µM (inactive) in each case.

As to `CN(C)CC1CN(C(=O)Nc2ccccc2)C(=N)O1` (stereo not given), the GI50 in the test with HOP-62, with SF-268, in the test on MOLT-4, with BT-549, in the test with M14 and with HCC 2998 was > 100 µM (inactive) each time. Besides, the GI50 with TK-10, in the test with SK-MEL-2, with COLO 205, with A498, in the test on SF-539 and with NCI-H23 was > 100 µM (inactive) each time. Moreover, the GI50 with 786-0 is > 100 µM (inactive); in the test with NCI/ADR-RES, > 100 µM (inactive); with PC-3 it was > 100 µM (inactive); in the test on UACC-62 it was > 100 µM (inactive); with Malme-3M, > 100 µM (inactive); with HCT-15, above 100 µM. Also, the GI50 is > 100 µM (inactive) in the test on UACC-257 and 83.2 µM (inactive) with MDA-N.

As to `O=C(NC(c1ccccc1)C(O)C(=O)OCc1ccc2c(c1)C(=O)c1ccccc1C2=O)c1ccccc1` (stereo not given), the GI50 in the test with HOP-62 was 3.62 µM (inactive); in the test with SF-268, 17.1 µM (inactive); with MOLT-4, 74.6 µM (inactive); in the test with BT-549, 35.3 µM (inactive); in the test on M14 it was 36.1 µM (inactive); in the test with HCC 2998 it was 39.6 µM (inactive). In addition, the GI50 with TK-10 is 15.2 µM (inactive); with SK-MEL-2, 18.1 µM (inactive); with COLO 205, 48.4 µM (inactive); with A498 it was 5.71 µM (inactive); in the test with SF-539, 6.31 µM (inactive); with NCI-H23, 12 µM (inactive). Moreover, the GI50 with 786-0 is 2.94 µM (inactive); in the test on NCI/ADR-RES, 4.35 µM (inactive); in the test with PC-3, 17.2 µM (inactive); in the test on UACC-62 it was 14.7 µM (inactive); in the test on Malme-3M, 11.4 µM (inactive); with HCT-15, above 95.3 µM. Also, the results for the GI50 in the test on UACC-257 and in the test with MDA-N were 28.5 µM (inactive) and 30.5 µM (inactive), respectively.

Take `CC(C)Cn1cnc2c(SCc3ccc(Cl)cc3Cl)nc(N)nc21`: the GI50 is 49.7 µM (inactive) with HOP-62; 34.8 µM (inactive) in the test with SF-268; 7.57 µM (inactive) with MOLT-4; 29.2 µM (inactive) in the test on BT-549; 32.4 µM (inactive) in the test on M14; 13.9 µM (inactive) in the test with HCC 2998. For the same compound, the GI50 in the test on TK-10 is 23.1 µM (inactive); in the test with SK-MEL-2, 32.4 µM (inactive); in the test with COLO 205 it was 11.5 µM (inactive); in the test on A498 it was 16.1 µM (inactive); with SF-539 it was 15.8 µM (inactive); in the test on NCI-H23, 26.1 µM (inactive). Besides, the GI50 with 786-0 was 23.9 µM (inactive); in the test on NCI/ADR-RES it was 26.5 µM (inactive); with PC-3, 16.5 µM (inactive); in the test with UACC-62, 19.8 µM (inactive); with Malme-3M, 26.4 µM (inactive); in the test with HCT-15 it was 16 µM. Also, the GI50 in the test on UACC-257 is 15.5 µM (inactive); in the test on MDA-N it was 41.1 µM (inactive).

For the compound `C[C@H](CCC(=O)NCCS(=O)(=O)O)[C@H]1CC[C@H]2[C@@H]3CC[C@@H]4C[C@H](O)CC[C@]4(C)[C@H]3CC[C@]12C`, the GI50 was > 100 µM (inactive) in the test on HOP-62; > 100 µM (inactive) in the test on SF-268; 91 µM (inactive) in the test with MOLT-4; > 100 µM (inactive) with BT-549; > 100 µM (inactive) with M14; > 100 µM (inactive) in the test on HCC 2998. Further, the GI50 in the test on TK-10, in the test on SK-MEL-2, with COLO 205, in the test with A498, in the test on SF-539 and in the test on NCI-H23 was > 100 µM (inactive) throughout. Besides, the GI50 was > 100 µM (inactive) in the test on 786-0; > 100 µM (inactive) in the test with NCI/ADR-RES; > 100 µM (inactive) with PC-3; > 100 µM (inactive) with UACC-62; > 100 µM (inactive) in the test with Malme-3M; above 100 µM with HCT-15. For the same compound, the GI50 in the test on UACC-257 and in the test on MDA-N was > 100 µM (inactive) throughout.

Consider `O=C1C(Cl)C(c2cc3cc(Br)ccc3nc2Cl)N1c1ccc(Cl)cc1` (stereo not given), for which the GI50 with HOP-62 is 9.68 µM (inactive); with SF-268 it was 4.51 µM (inactive); in the test with MOLT-4 it was 3.89 µM (inactive); in the test on BT-549, 4.4 µM (inactive); in the test on M14 it was 5.85 µM (inactive); in the test with HCC 2998 it was 4.36 µM (inactive). Moreover, the GI50 in the test on TK-10 is 5.24 µM (inactive); in the test on SK-MEL-2, 4.37 µM (inactive); in the test on COLO 205, 4.89 µM (inactive); in the test with A498, 16.5 µM (inactive); with SF-539, 4.33 µM (inactive); with NCI-H23, 5.7 µM (inactive). The GI50 is 4.65 µM (inactive) with 786-0; 5.75 µM (inactive) in the test on NCI/ADR-RES; 5.69 µM (inactive) in the test on PC-3; 4.22 µM (inactive) in the test on UACC-62; 4.56 µM (inactive) in the test with Malme-3M; 4.86 µM in the test on HCT-15. The figures for the GI50 in the test on UACC-257 and with MDA-N were 4.81 µM (inactive) and 5.53 µM (inactive), respectively.
